Assay results published in patent US12110293B2, “Substituted triazolo quinoxaline derivatives” (GRÜNENTHAL GMBH, priority 2018, dated 2024).

What follows are compounds tested against T1, glucocorticoid receptor (Homo sapiens, UniProt P04150) (assay: Agonistic mode of action on the glucocorticoid receptor (CHO-Gal4/GR luciferase reporter cell line)). Conditions: range class observed in the agonistic assay or the antagonistic assay (CHO-Gal4/GR reporter cells); table does not say which mode applies per example.
T1 construct: expressed in transfected cells
T1 sequence (P04150 524-758 limits assumed): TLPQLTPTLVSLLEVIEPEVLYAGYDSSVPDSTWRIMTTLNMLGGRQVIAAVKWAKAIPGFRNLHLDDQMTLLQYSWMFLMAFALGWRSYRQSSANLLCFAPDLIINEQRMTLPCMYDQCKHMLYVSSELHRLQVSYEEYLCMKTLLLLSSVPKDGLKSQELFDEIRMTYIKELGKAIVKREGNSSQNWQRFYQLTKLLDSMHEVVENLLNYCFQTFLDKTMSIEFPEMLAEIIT
Type: cell-based
Outline: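 CHO cells stably carrying GAL4 DBD–GR ligand-binding-domain fusion and GAL4-UAS firefly luciferase reporter, 5000 cells/well grown 24 h, then compounds added in Opti-MEM at 8 half-log concentrations from 10 μM to 0.003 μM (0.5% DMSO), quadruplicates. Agonist-induced luminescence read on FLIPR Tetra; EC50 calculated.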

SMILES	IC50 or EC50 (agonist or antagonist mode not specified)
COCCn1ccc2c(-c3c(Cl)cc4c(c3C)-n3c(C)nnc3C(C)(C)N4)cccc21 [Example 338, 7-Chloro-8-[1-(2-methoxy-ethyl)-1H-indol-4-yl]-1,4,4,9-tetramethyl-5H-[1,2,4]triazolo[4,3-a]quinoxaline]	100 to 1000 nM
COc1cc2c(c(C(F)(F)F)c1-c1cc(F)cc3c(C)c[nH]c13)-n1c(C)nnc1C(C)(C)N2 [Example 407, 8-(5-Fluoro-3-methyl-1H-indol-7-yl)-7-methoxy-1,4,4-trimethyl-9-(trifluoromethyl)-5H-[1,2,4]triazolo[4,3-a]quinoxaline]	< 100 nM
Cc1c[nH]c2c(-c3c(OC(F)F)cc4c(c3F)-n3c(C)nnc3C(C)(C)N4)cccc12 [Example 282, 7-(Difluoro-methoxy)-9-fluoro-1,4,4-trimethyl-8-(3-methyl-1H-indol-7-yl)-5H-[1,2,4]triazolo[4,3-a]quinoxaline]	100 to 1000 nM
COc1cc2c(c(C(F)(F)F)c1-c1cccc3c(C)c[nH]c13)-n1c(C)nnc1C(C)(C)N2 [Example 357, 7-Methoxy-1,4,4-trimethyl-8-(3-methyl-1H-indol-7-yl)-9-(trifluoromethyl)-5H-[1,2,4]triazolo[4,3-a]quinoxaline]	< 100 nM
Cc1nnc2n1-c1c(cc(F)c(-c3cccc4c3ccn4S(C)(=O)=O)c1F)NC2(C)C [Example 22, 7,9-difluoro-1,4,4-trimethyl-8-(1-(methylsulfonyl)-1H-indol-4-yl)-4,5-dihydro-[1,2,4]triazolo[4,3-a]quinoxaline]	100 to 1000 nM
CCc1c(-c2cc(F)cc3c2ccn3S(C)(=O)=O)c(F)cc2c1-n1c(C)nnc1C(C)(C)N2 [Example 46, 9-Ethyl-7-fluoro-8-(6-fluoro-1-methylsulfonyl-1H-indol-4-yl)-1,4,4-trimethyl-5H-[1,2,4]triazolo[4,3-a]quinoxaline]	< 100 nM
Cc1cc2c(c(C)c1-c1cccc3c1ccn3S(C)(=O)=O)-n1c(C)nnc1C(C)(C)N2 [Example 309, 1,4,4,7,9-Pentamethyl-8-(1-methylsulfonyl-1H-indol-4-yl)-5H-[1,2,4]triazolo[4,3-a]quinoxaline]	< 100 nM
Cc1nnc2n1-c1c(cc(F)c(-c3cc(F)cc4c3cnn4CC(F)F)c1C(F)F)NC2(C)C [Example 472, 8-[1-(2,2-Difluoro-ethyl)-6-fluoro-1H-indazol-4-yl]-9-(difluoro-methyl)-7-fluoro-1,4,4-trimethyl-5H-[1,2,4]triazolo[4,3-a]quinoxaline]	< 100 nM
COCCn1ccc2c(-c3c(OC)cc4c(c3C(F)(F)F)-n3c(C)nnc3C(C)(C)N4)cccc21 [Example 334, 7-Methoxy-8-[1-(2-methoxy-ethyl)-1H-indol-4-yl]-1,4,4-trimethyl-9-(trifluoromethyl)-5H-[1,2,4]triazolo[4,3-a]quinoxaline]	1000 to 15000 nM
Cc1c[nH]c2c(-c3c(C(F)F)cc4c(c3F)-n3c(C)nnc3C(C)(C)N4)cccc12 [Example 306, 7-(Difluoro-methyl)-9-fluoro-1,4,4-trimethyl-8-(3-methyl-1H-indol-7-yl)-5H-[1,2,4]triazolo[4,3-a]quinoxaline]	100 to 1000 nM
COCCn1ccc2c(-c3c(OC(F)(F)F)cc4c(c3C)-n3c(C)nnc3C(C)(C)N4)cccc21 [Example 460, 8-[1-(2-Methoxy-ethyl)-1H-indol-4-yl]-1,4,4,9-tetramethyl-7-(trifluoromethyloxy)-5H-[1,2,4]triazolo[4,3-a]quinoxaline]	100 to 1000 nM
COc1c(-c2cc(F)cc3c(C4CC4)c[nH]c23)c(F)cc2c1-n1c(C)nnc1C(C)(C)N2 [Example 483, 8-(3-Cyclopropyl-5-fluoro-1H-indol-7-yl)-7-fluoro-9-methoxy-1,4,4-trimethyl-5H-[1,2,4]triazolo[4,3-a] quinoxaline]	< 100 nM
Cc1nnc2n1-c1c(ccc(-c3cccc4c3ccn4S(C)(=O)=O)c1C(F)F)NC2(C)C [Example 528, 9-(Difluoro-methyl)-1,4,4-trimethyl-8-(1-methylsulfonyl-1H-indol-4-yl)-5H-[1,2,4]triazolo [4,3-a]quinoxaline]	100 to 1000 nM
COCCn1ccc2c(-c3c(OC(F)F)cc4c(c3C)-n3c(C)nnc3C(C)(C)N4)cccc21 [Example 336, 7-(Difluoro-methoxy)-8-[1-(2-methoxy-ethyl)-1H-indol-4-yl]-1,4,4,9-tetramethyl-5H-[1,2,4]triazolo[4,3-a]quinoxaline]	1000 to 15000 nM
Cc1c[nH]c2c(-c3c(C(F)F)cc4c(c3F)-n3c(C)nnc3C(C)(C)N4)cc(F)cc12 [Example 296, 7-(Difluoro-methyl)-9-fluoro-8-(5-fluoro-3-methyl-1H-indol-7-yl)-1,4,4-trimethyl-5H-[1,2,4]triazolo[4,3-a]quinoxaline]	100 to 1000 nM
CCS(=O)(=O)n1ncc2c(-c3c(F)cc4c(c3C(F)(F)F)-n3c(C)nnc3C(C)(C)N4)cc(F)cc21 [Example 448, 8-[1-(Ethylsulfonyl)-6-fluoro-1H-indazol-4-yl]-7-fluoro-1,4,4-trimethyl-9-(trifluoromethyl)-5H-[1,2,4]triazolo[4,3-a]quinoxaline]	100 to 1000 nM
Cc1nnc2n1-c1c(cc(OC(F)F)c(-c3cccc4c3ccn4CC(F)F)c1F)NC2(C)C [Example 393, 8-[1-(2,2-Difluoro-ethyl)-1H-indol-4-yl]-7-(difluoro-methoxy)-9-fluoro-1,4,4-trimethyl-5H-[1,2,4]triazolo [4,3-a]quinoxaline]	1000 to 15000 nM
Cc1nnc2n1-c1c(cc(F)c(-c3cccc4c3ccn4C3CC3)c1C(F)F)NC2(C)C [Example 514, 8-(1-Cyclopropyl-1H-indol-4-yl)-9-(difluoro-methyl)-7-fluoro-1,4,4-trimethyl-5H-[1,2,4]triazolo[4,3-a]quinoxaline]	100 to 1000 nM
Cc1nnc2n1-c1c(ccc(-c3cc(F)cc4c3ccn4S(C)(=O)=O)c1C(F)(F)F)NC2(C)C [Example 499, 8-(6-Fluoro-1-methylsulfonyl-1H-indol-4-yl)-1,4,4-trimethyl-9-(trifluoromethyl)-5H-[1,2,4]triazolo[4,3-a]quinoxaline]	100 to 1000 nM
Cc1c(-c2cc(F)cc3c(C4CC4)c[nH]c23)c(F)cc2c1-n1c(C)nnc1C(C)(C)N2 [Example 33, 8-(3-cyclopropyl-5-fluoro-1H-indol-7-yl)-7-fluoro-1,4,4,9-tetramethyl-4,5-dihydro-[1,2,4]triazolo[4,3-a]quinoxaline]	< 100 nM

Next, values leading:

IC50 or EC50 (agonist or antagonist mode not specified)	SMILES
< 100 nM	Cc1c(-c2cccc3c2ccn3C)c(F)cc2c1-n1c(C)nnc1C(C)(C)N2 [Example 486, 7-Fluoro-1,4,4,9-tetramethyl-8-(1-methyl-1H-indol-4-yl)-5H-[1,2,4]triazolo[4,3-a]quinoxaline]
< 100 nM	Cc1c(-c2cccc3c(CC(F)(F)F)c[nH]c23)c(F)cc2c1-n1c(C)nnc1C(C)(C)N2 [Example 24, 7-fluoro-1,4,4,9-tetramethyl-8-(3-(2,2,2-trifluoroethyl)-1H-indol-7-yl)-4,5-dihydro-[1,2,4]triazolo[4,3-a]quinoxaline]
100 to 1000 nM	Cc1nnc2n1-c1c(cc(F)c(-c3cccc4cc[nH]c34)c1F)NC2(C)C [Example 9, 7,9-difluoro-8-(1H-indol-7-yl)-1,4,4-trimethyl-4,5-dihydro-[1,2,4]triazolo[4,3-a]quinoxaline]
< 100 nM	Cc1nnc2n1-c1c(cc(F)c(-c3cc(F)cc4[nH]ccc34)c1F)NC2(C)C [Example 1, 7,9-difluoro-8-(6-fluoro-1H-indol-4-yl)-1,4,4-trimethyl-4,5-dihydro-[1,2,4]triazolo[4,3-a]quinoxaline]
100 to 1000 nM	Cc1c(-c2cc(C(F)(F)F)cc3[nH]ccc23)c(Cl)cc2c1-n1c(C)nnc1C(C)(C)N2 [Example 475, 7-Chloro-1,4,4,9-tetramethyl-8-[6-(trifluoromethyl)-1H-indol-4-yl]-5H-[1,2,4]triazolo[4,3-a]quinoxaline]
< 100 nM	Cc1c(-c2cc(F)cc3c(C)c[nH]c23)c(F)cc2c1-n1c(C)nnc1C(C)(C)N2 [Example 31, 7-fluoro-8-(5-fluoro-3-methyl-1H-indol-7-yl)-1,4,4,9-tetramethyl-4,5-dihydro-[1,2,4]triazolo[4,3-a]quinoxaline]
100 to 1000 nM	CC#Cc1c[nH]c2c(-c3c(F)cc4c(c3F)-n3c(CC)nnc3C(C)(C)N4)cccc12 [Example 13, 1-ethyl-7,9-difluoro-4,4-dimethyl-8-(3-(prop-1-yn-1-yl)-1H-indol-7-yl)-4,5-dihydro-[1,2,4]triazolo[4,3-a]quinoxaline]
1000 to 15000 nM	CCc1nnc2n1-c1c(cc(F)c(-c3c(F)ccc4[nH]ccc34)c1C)NC2(C)C [Example 244, 1-Ethyl-7-fluoro-8-(5-fluoro-1H-indol-4-yl)-4,4,9-trimethyl-5H-[1,2,4]triazolo[4,3-a]quinoxaline]
100 to 1000 nM	Cc1nnc2n1-c1c(cc(F)c(-c3ccc(F)c4[nH]ccc34)c1F)NC2(C)C [Example 497, 7,9-Difluoro-8-(7-fluoro-1H-indol-4-yl)-1,4,4-trimethyl-5H-[1,2,4]triazolo[4,3-a]quinoxaline]
